The values below come from publication PMC11284800 (Journal of Medicinal Chemistry, 2024).

Several values for one entry are separate records, joined by “and”; a condition that tells them apart may be missing. Identical values can stand only once. Like-named read-outs stand apart in the source and are kept apart here. A value given as a limit tells only on which side of the number the result lay.

Data set [1] deals with T1, hCB1R (Homo sapiens, UniProt P21554). As to the kind of experiment: [3H]CP55,940 displacement assay on CHO membranes, CB1R. Format: binding. The arrangement: host or cells: CHO-K1 (CHOK1hCB1_bgal). As to conditions: for Ki: [3H]CP55,940 displacement.
Target sequence in this assay (P21554 whole entry): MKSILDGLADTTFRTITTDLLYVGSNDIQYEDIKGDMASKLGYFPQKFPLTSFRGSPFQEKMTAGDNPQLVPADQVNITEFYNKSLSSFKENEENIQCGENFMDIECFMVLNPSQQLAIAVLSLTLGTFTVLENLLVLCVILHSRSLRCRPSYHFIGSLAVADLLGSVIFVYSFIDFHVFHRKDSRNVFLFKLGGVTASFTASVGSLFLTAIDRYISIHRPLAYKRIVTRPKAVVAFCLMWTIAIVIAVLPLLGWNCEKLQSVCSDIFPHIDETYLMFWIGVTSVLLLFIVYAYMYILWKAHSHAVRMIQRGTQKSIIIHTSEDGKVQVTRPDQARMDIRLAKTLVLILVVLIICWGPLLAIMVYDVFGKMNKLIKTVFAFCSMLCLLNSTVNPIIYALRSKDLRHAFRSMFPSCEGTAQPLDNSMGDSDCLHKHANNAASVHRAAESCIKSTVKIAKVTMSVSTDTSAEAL
Data set [2] concerns the target T1, hCB1R. Briefly: HTRF cAMP assay, antagonist mode (forskolin with CP55,940). The settings on record: for Emax: read-out: Variation of Emax.
Target sequence in this assay (P21554 whole entry): as above
Description: The homogeneous time-resolved fluorescence (HTRF) cAMP assay was conducted following the manufacturer’s protocol for the cAMP-Gs Dynamic kit. […] After 15 min, reactions were stopped by the 1× cAMP-d2 conjugate in lysis buffer (5 μL/well), followed by 1× anti-cAMP cryptate conjugate in lysis buffer (5 μL/well). Following a 1 h incubation at room temperature, the plates were read in a Revvity Envision reader for time-resolved fluorescence resonance energy transfer detection at 620 and 665 nm. The HTRF ratio versus compound concentrations was plotted using Prism 8.1 (GraphPad). HTRF ratio = (signal 665 nm/signal 620 nm) × 10^4.
For data set [3], the target named is T1, hCB1R. As to the kind of experiment: HTRF cAMP assay, agonist / inverse agonist mode. Format: cell-based. The arrangement: expressed in transfected cells; host or cells: CHO. The settings on record: for Functional activity at CB1R (in words): CB1R cAMP HTRF assay. A general note: Time-resolved FRET reads energy transfer from a long-lived donor to a nearby acceptor.
Target sequence in this assay (P21554 whole entry): as above

A further data set has as its target T2, human CB2R (Homo sapiens, UniProt P34972).
T2 construct: host or cells: CHO-K1 (CHOK1hCB2_bgal)
Briefly: [3H]CP55,940 displacement assay on CHO membranes, CB2R. Format: binding. As to conditions: for hCB2R % displacement at 10 µM: [3H]CP55,940 displacement at 10 µM compound, ± SEM; for Ki: [3H]CP55,940 displacement.

For another data set, the target named is CB2R. The settings on record: cited from earlier work.
Data set [4] has as its system CB1R. Set-up: method as in PMID 8070571, PMID 27240274, PMID 24175572. The settings on record: cited from earlier work.
The target of data set [5] is CB1R. The settings on record: cited from earlier work.
Data set [6] has as its target hCB1R. The settings on record: cited from earlier work.
In data set [7] the target is T1, hCB1R. As to the kind of experiment: biochemical.
Target sequence in this assay (P21554 91-472): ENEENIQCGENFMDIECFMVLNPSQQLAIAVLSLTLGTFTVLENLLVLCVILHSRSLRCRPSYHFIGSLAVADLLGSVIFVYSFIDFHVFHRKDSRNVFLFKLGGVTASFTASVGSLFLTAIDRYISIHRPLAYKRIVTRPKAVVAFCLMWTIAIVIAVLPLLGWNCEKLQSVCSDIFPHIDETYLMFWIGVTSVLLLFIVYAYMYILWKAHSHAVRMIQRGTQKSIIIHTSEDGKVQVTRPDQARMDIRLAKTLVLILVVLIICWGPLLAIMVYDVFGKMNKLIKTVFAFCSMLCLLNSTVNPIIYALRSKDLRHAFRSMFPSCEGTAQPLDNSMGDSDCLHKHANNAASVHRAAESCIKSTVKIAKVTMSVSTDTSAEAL
Data set [8] can be described thus: Photophysical characterization in PBS. Format: physicochemical. The settings on record: PBS pH 7.4.
The test system of data set [9] is CB1R. As to the kind of experiment: Literature affinity of drug-like ligands, CB1R (Figure 2). Format: binding. As to conditions: from literature Ki values.
[10] abbreviates: hCB1R Ki, CHO membranes stably expressing human CB1R, means of three experiments.
Where [11] appears, read: hCB2R Ki, CHO membranes stably expressing human CB2R, means of three experiments.
[12] abbreviates: CHO membranes stably expressing human CB2R, means of three experiments, read-out: hCB2R Ki.

By Ki is commonly meant the dissociation constant of the complex between target and ligand, obtained from inhibition or displacement. As a reminder, the IC50 is the midpoint of a concentration-inhibition curve. As a reminder, the Emax is the greatest response seen or fitted, relative to the assay's reference. As a reminder, the Kd is a measure of binding affinity in units of concentration. A word on the koff: it is the rate constant with which the complex falls apart. Broadly, the kon is the second-order rate constant of association. Low readings indicate slow association, high ones fast association.

T2 sequence (P34972 whole entry): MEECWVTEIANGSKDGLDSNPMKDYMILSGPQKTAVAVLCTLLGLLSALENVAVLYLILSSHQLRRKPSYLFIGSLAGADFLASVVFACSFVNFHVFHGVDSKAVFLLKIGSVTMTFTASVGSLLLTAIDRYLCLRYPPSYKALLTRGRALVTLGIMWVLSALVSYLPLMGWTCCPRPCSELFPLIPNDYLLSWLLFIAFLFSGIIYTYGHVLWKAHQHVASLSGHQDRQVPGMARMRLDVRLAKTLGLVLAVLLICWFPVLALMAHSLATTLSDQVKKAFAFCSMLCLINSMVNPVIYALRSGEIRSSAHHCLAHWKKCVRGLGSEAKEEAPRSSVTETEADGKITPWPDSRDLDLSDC

On hCB1R [1] (setting [10]), `CCC(CC)(NC(=O)c1nn(-c2ccc(Cl)cc2Cl)c(-c2ccc(Cl)cc2)c1C)C(=O)NCCOCCOCCNC(=O)OC(C)(C)C` [Compound 23b, tert-Butyl (1-(5-(4-Chlorophenyl)-1-(2,4-dichlorophenyl)-4-methyl-1H-pyrazol-3-yl)-3,3-diethyl-1,4-dioxo-8,11-dioxa-2,5-diazatridecan-13-yl)carbamate] showed a Ki of 139 nM. Moreover, on hCB1R [2], the IC50 was 1580 nM and the Emax was -96%. In addition, at hCB1R [3], the Emax is -44%, the IC50 came to 64.6 nM and the “Functional activity at CB1R (in words)” value is listed as “inverse agonist”. For the same compound, the “hCB2R % displacement at 10 µM” value on human CB2R came out at 44 ± 5%. The compound further gave a Ki on human CB2R (setting [11]) of more than 10000 nM.

The compound `CCOC(=O)C(CC)(CC)NC(=O)c1cc(-c2cc(C(F)(F)F)ccc2C(F)(F)F)n(C[C@H]2CCCO2)c1C` [Compound 14, Ethyl (R)-2-(5-(2,5-Bis(trifluoromethyl)phenyl)-2-methyl-1-((tetrahydrofuran-2-yl)methyl)-1H-pyrrole-3-carboxamido)-2-ethylbutanoate] gave an inhibition constant Ki at hCB1R [1] (hCB1R pKi ± SEM, CHO membranes) of 11 nM. Besides, the “Ki(CB2R)/Ki(CB1R) selectivity” value at hCB1R [1] (radioligand binding Ki ratio) was 28 fold. On hCB1R [2], the IC50 is 10 nM and the Emax is -107%. Besides, at hCB1R [3], the Emax is -46%, the IC50 amounted to 1.48 nM and the “Functional activity at CB1R (in words)” value is recorded as “inverse agonists”. The Ki on human CB2R (setting [12]) was 306 nM.

As for `COCCOc1ncc(C(=O)NC[C@](C)(O)C2CC2)nc1-c1ccc(Cl)cc1` [Compound 9], the Ki on CB2R was more than 475 nM; at CB1R [5], 47.5 nM. In the data set with CB1R [4], the “Functional profile at CB1R (in words)” value is “inverse agonist”.

Regarding `CCCCCCC(C)(C)c1cc(O)c2c(c1)OC(C)(C)c1ccc(CNCCCCCCNC(=O)CCCCCC[N+]3=C(/C=C/C=C/C=C4/N(C)c5ccc(S(=O)(=O)O)cc5C4(C)C)C(C)(C)c4cc(S(=O)(=O)[O-])ccc43)cc1-2` [ABP511], the Ki on hCB1R [6] was 3.5 nM.

As for `O=C(NN1CCCCC1)c1nn(-c2ccc(Cl)cc2Cl)c2c1CCCc1cc(Cl)ccc1-2` [Compound 7, NESS-0327], the inhibition constant Ki was 55.7 nM on CB2R and 4.2 nM on CB1R [5]. Besides, the “Functional profile at CB1R (in words)” value in the data set with CB1R [4] is given as “neutral antagonist”.

On hCB1R [7], `CCCCCCC(C)(C)c1cc(O)c2c(c1)OC(C)(C)[C@@H]1CC=C(CO)C[C@@H]21` [HU210] had a Kd of 3.04 nM, a dissociation rate constant (koff) of 0.00183 s⁻¹ and a kon of 623000 M⁻¹ s⁻¹. At hCB1R [7] (Ki), the Ki is 2.08 nM and 1.26 nM. Besides, affinity at hCB1R [7] (pKi) was put at a Ki of 2.04 nM. For the same compound, the residence time on hCB1R [7] (read-out: RT (residence time)) is 9.1 min.

As for `Cc1c(C(=O)NC2CCCCC2)cc(-c2cc(C(F)(F)F)ccc2C(F)(F)F)n1CC1CCCO1` (stereo not shown) [Compound 5], the IC50 in the data set with CB2R was more than 80 nM; with CB1R [5], 8 nM. Besides, the “Functional profile at CB1R (in words)” value in the data set on CB1R [4] is reported as “inverse agonist”.

For the compound `CCOC(=O)C(CC)(CC)NC(=O)c1cnc(OCC2CC2)c(-c2ccc(F)cc2)c1` [Compound 17, Ethyl 2-(6-(Cyclopropylmethoxy)-5-(4-fluorophenyl)nicotinamido)-2-ethylbutanoate], the Ki on hCB1R [1] (setting [10]) was 308 nM; on human CB2R (setting [11]), 6 nM; at human CB2R (hCB2R pKi ± SEM, CHO membranes), 6.46 nM. The IC50 on hCB1R [2] was 3980 nM; on hCB1R [3], 43.6 nM. For the same compound, the Emax at hCB1R [2] is -116%; on hCB1R [3], -48%. Further, the “Functional activity at CB1R (in words)” value at hCB1R [3] is on record as “inverse agonists”.

The compound `CCC(CC)(NC(=O)c1cc(-c2cc(C(F)(F)F)ccc2C(F)(F)F)n(C[C@H]2CCCO2)c1C)C(=O)NCCOCCOCCNc1ccc([N+](=O)[O-])c2nonc12` [Compound 28, (R)-5-(2,5-Bis(trifluoromethyl)phenyl)-2-methyl-N-(3-((2-(2-(2-((7-nitrobenzo[c][1,2,5]oxadiazol-4-yl)amino)ethoxy)ethoxy)ethyl)carbamoyl)pentan-3-yl)-1-((tetrahydrofuran-2-yl)methyl)-1H-pyrrole-3-carboxamide] yielded an inhibition constant Ki at hCB1R [1] (setting [10]) of 97 nM. The “Ki(CB2R)/Ki(CB1R)” value at hCB1R [1] (radioligand binding Ki ratio) is recorded as more than 103. Also, at hCB1R [2], half-maximal inhibition (IC50) was put at 398 nM and the Emax is -97%. Moreover, in data set [8], the “Abs (absorbance maximum)” value was 475 nm, the “Em (emission maximum)” value was determined as 550 nm and the “QY (quantum yield)” value is given as 1.3%. For the same compound, on hCB1R [3], the Emax was -62%, the IC50 worked out at 16.6 nM and the “Functional activity at CB1R (in words)” value is listed as “inverse agonists”. Also, the “hCB2R % displacement at 10 µM” value on human CB2R was found to be 41 ± 2%. In addition, at human CB2R (setting [12]), the inhibitory constant (Ki) is more than 10000 nM.

As for `O=C(NC1CCCCC1O)c1cnc(OCC2CC2)c(-c2ccc(F)cc2)c1` (stereo not shown) [Compound 8], the inhibition constant (Ki) at CB2R was more than 10000 nM; on CB1R [5], 42.8 nM. Also, the “Functional profile at CB1R (in words)” value in the data set with CB1R [4] is given as “inverse agonist”.

On hCB1R [1] (setting [10]), `CCC(CC)(NC(=O)c1nn(-c2ccc(Cl)cc2Cl)c(-c2ccc(Cl)cc2)c1C)C(=O)NCCOCCOCCNc1ccc([N+](=O)[O-])c2nonc12` [Compound 30, 5-(4-Chlorophenyl)-1-(2,4-dichlorophenyl)-4-methyl-N-(3-((2-(2-(2-((7-nitrobenzo[c][1,2,5]oxadiazol-4-yl)amino)ethoxy)ethoxy)ethyl)carbamoyl)pentan-3-yl)-1H-pyrazole-3-carboxamide] yielded a Ki of 428 nM. Further, the “Ki(CB2R)/Ki(CB1R)” value at hCB1R [1] (radioligand binding Ki ratio) is more than 23. In addition, in [8], the “Abs (absorbance maximum)” value was 475 nm, the “Em (emission maximum)” value came to 570 nm and the “QY (quantum yield)” value came to 0.80%. At hCB1R [3], the Emax was -41%, the IC50 came out at 60.3 nM and the “Functional activity at CB1R (in words)” value is given as “Inverse agonist”. At human CB2R, the “hCB2R % displacement at 10 µM” value turned out to be 49 ± 3%. In addition, on human CB2R (setting [11]), the Ki is more than 10000 nM.

Consider `CCC(CC)(NC(=O)c1cc(-c2cc(C(F)(F)F)ccc2C(F)(F)F)n(C[C@H]2CCCO2)c1C)C(=O)NCCOCCOCCNC(=O)OC(C)(C)C` [Compound 22b, tert-Butyl (R)-(1-(5-(2,5-Bis(trifluoromethyl)phenyl)-2-methyl-1-((tetrahydrofuran-2-yl)methyl)-1H-pyrrol-3-yl)-3,3-diethyl-1,4-dioxo-8,11-dioxa-2,5-diazatridecan-13-yl)carbamate], for which the Ki was 811 nM on hCB1R [1] (CHO membranes stably expressing human CB1R, means of three experiments, read-out: hCB1R Ki) and more than 10000 nM on human CB2R (setting [12]). Besides, the IC50 on hCB1R [2] is 1000 nM; at hCB1R [3] (read-out: Functional activity (cAMP assay) IC50), 131 nM. The Emax is -105% on hCB1R [2] and -69% on hCB1R [3]. In addition, the “Functional activity at CB1R (in words)” value on hCB1R [3] was “inverse agonist”. Moreover, the “hCB2R % displacement at 10 µM” value on human CB2R worked out at 22 ± 9%.

With `CC(C)[C@H](NC(=O)c1nn(Cc2cccc(F)c2)c2ccccc12)C(N)=O` [Compound 10, AB-FUBINACA 3-F benzyl], the values for the Ki on CB2R and at CB1R [5] were 52.5 nM and 12.6 nM, respectively. Also, the “Ki(CB2R)/Ki(CB1R) selectivity” value in the data set with CB1R [9] worked out at 4 fold. Moreover, the “Functional profile at CB1R (in words)” value in the data set on CB1R [4] is reported as “agonist”.

As for `Cc1c(C(=O)NN2CCOCC2)nn(-c2ccc(Cl)cc2Cl)c1-c1ccc(I)cc1` [AM281, reference compound], the “Variation of Emax” value at hCB1R [2] (antagonist mode, normalized to reference antagonist AM281) is -100%. Further, the “Antagonist activity (cAMP assay) pEC50 or pIC50 ± SEM” value at hCB1R [2] (antagonist mode, n.a. is no activity) worked out at 7.0 ± 0.04.
